Measurements taken from PubChem BioAssay (NCI).
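96-well plates; 48 h exposure; 5 concentrations. Endpoints by linear interpolation between flanking doses. Not reached: highest tested concentration assigned. Abbreviation: GI50, concentration required for 50% inhibition of growth. Definition used: TGI = concentration required for complete inhibition of growth.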

Tests used:
Assay in all cases: growth of human tumour cells (NCI), 48 h
HCC-2998 colon = system: HCC-2998 colon
HL-60(TB) leukemia = system: HL-60(TB) leukemia
HT29 colon = system: HT29 colon
M14 melanoma = system: M14 melanoma
SK-MEL-28 melanoma = system: SK-MEL-28 melanoma
SK-OV-3 ovarian = system: SK-OV-3 ovarian
TK-10 renal = system: TK-10 renal
U251 CNS = system: U251 CNS
BT-549 breast = system: BT-549 breast
T-47D breast = system: T-47D breast

| Structure (SMILES) | TGI (HCC-2998 colon) [µM] | TGI (HL-60(TB) leukemia) [µM] | TGI (HT29 colon) [µM] | TGI (M14 melanoma) [µM] | TGI (SK-MEL-28 melanoma) [µM] | TGI (SK-OV-3 ovarian) [µM] | TGI (TK-10 renal) [µM] | TGI (U251 CNS) [µM] | TGI (BT-549 breast) [µM] | TGI (T-47D breast) [µM] | GI50 (BT-549 breast) [µM] | GI50 (HCC-2998 colon) [µM] | GI50 (HL-60(TB) leukemia) [µM] | GI50 (HT29 colon) [µM] | GI50 (M14 melanoma) [µM] | GI50 (SK-OV-3 ovarian) [µM] | GI50 (TK-10 renal) [µM] | GI50 (U251 CNS) [µM] |
| --- | --- | --- | --- | --- | --- | --- | --- | --- | --- | --- | --- | --- | --- | --- | --- | --- | --- | --- |
| CC1=C2C(=CC(C)(CO)C2O)C(=O)C(C)(O)C12CC2 (stereo unspecified) | 0.00903 | 0.00697 | 0.0446 | 0.0104 | 0.0138 | 0.0424 | 0.0233 | 0.0211 | – | – | – | – | – | – | – | – | – | – |
| O=[N+]([O-])c1ccc(OCCNc2cccc3ccccc23)cc1 | > 100 | – | > 100 | > 100 | > 100 | > 100 | > 100 | > 100 | – | – | – | – | – | – | – | – | – | – |
| O=[N+]([O-])c1ccc2c(c1)OCCOCCOc1ccc([N+](=O)[O-])cc1OCCOCCO2 | > 100 | > 100 | > 100 | > 100 | > 100 | > 100 | > 100 | > 100 | – | – | – | – | – | – | – | – | – | – |
| CN1NC2=NCCN=C3NN(C)C(=NCCN=C1S2)S3 | – | > 100 | > 100 | > 100 | > 100 | – | – | > 100 | – | – | – | – | – | – | – | – | – | – |
| COC1=C(OC)C(=O)c2cc(SC)c(=O)c(SC)cc2C1=O | > 100 | 3.97 | > 100 | 32.6 | 26.7 | > 100 | > 100 | 38.7 | – | – | – | – | – | – | – | – | – | – |
| COC(=O)C(=O)C(C(=O)C(=O)Nc1ccc([N+](=O)[O-])cc1[N+](=O)[O-])c1nc2ccc([N+](=O)[O-])cc2[nH]c1=O (stereo unspecified) | > 100 | > 100 | > 100 | > 100 | – | > 100 | > 100 | > 100 | – | – | – | – | – | – | – | – | – | – |
| O=C(O)C1CCCN1Cc1c[nH]c2ccccc12 (stereo unspecified) | – | > 100 | > 100 | > 100 | > 100 | > 100 | > 100 | > 100 | > 100 | > 100 | – | – | – | – | – | – | – | – |
| COc1ccc(/C=C\c2cc(OC)c(OC)c(OC)c2)cc1NC(=O)[C@@H](N)CO | > 100 | 0.758 | 20.5 | > 100 | – | > 100 | > 100 | > 100 | 0.085 | – | < 0.0139 | 0.0199 | < 0.0178 | < 0.0173 | 0.0123 | < 0.0124 | 19.3 | 0.0165 |
| CCCOP1(=O)C=C(C)C(Cl)=C(C)C1 (stereo unspecified) | > 100 | 81.6 | 49.3 | 32.5 | 43.5 | > 100 | 63.9 | 59.3 | – | – | – | – | – | – | – | – | – | – |
| CN(OC(=O)CC(=O)c1ccccc1)C(=O)Cc1ccccc1 | – | > 100 | > 100 | > 100 | – | > 100 | > 100 | > 100 | – | – | – | – | – | – | – | – | – | – |
| O=C1C(c2ccc(Cl)cc2)=[N+]([O-])c2ccccc21 | > 100 | 24 | 43.6 | 27.7 | 28.5 | > 100 | 30.1 | 31.5 | – | – | – | – | – | – | – | – | – | – |
| O=C1CC2(CCCc3sccc32)C(=O)N1 (stereo unspecified) | > 100 | > 100 | > 100 | > 100 | > 100 | > 100 | > 100 | > 100 | – | > 100 | – | – | – | – | – | – | – | – |
| COC1CCC2C(=O)CCCC2O1 (stereo unspecified) | > 100 | > 100 | > 100 | > 100 | – | > 100 | > 100 | > 100 | – | – | – | – | – | – | – | – | – | – |
